Results taken from article PMC12323621, “Exploring the antimicrobial activity of pantothenamides against uropathogenic Escherichia coli” (Microbiology Spectrum, 2025).

Experiments:
[1] = Stability in mouse plasma; assay type: in vitro ADME; details: for stability in mouse plasma: n = 3
Protocol: Stability studies were conducted in mouse liver microsomes, mouse liver tissue homogenate, and CD1 mouse plasma as previously described with minor modifications ([54][–][56]). Briefly, for Phase I mouse liver microsome stability, reactions were carried out with 200 mM potassium phosphate buffer, pH 7.4, with or without an NADPH-regenerating system (1.3 mM NADPH, 3.3 mM glucose 6-phosphate, 3.3 mM MgCl2, 0.4 U/mL glucose-6-phosphate dehydrogenase, and 50 µM sodium citrate). Reactions, in triplicate, were initiated by the addition of liver microsomes to the incubation mixture (compound final concentration was 1 µM; 0.2 mg/mL microsomes) and incubated at 37°C for the desired incubation time. For liver stability, the tissue homogenate was prepared by washing tissues with diluted 10-fold 0.1 M potassium phosphate buffer and homogenized using a probe sonicator over ice. To evaluate the stability of the drugs over time, each of the crude homogenates was aliquoted to 1 mL and then spiked with a final assay concentration of 10 µM of each drug, followed by incubation in an orbital shaker at 37°C for 1 h (in triplicate). For plasma stability, 1 mL of plasma was spiked with 10 µM of each drug, followed by incubation in an orbital shaker at 37°C for 1 h (in triplicate). Samples from each metabolism study were quenched with 3× volume of acetonitrile containing internal standard (losartan: 0.5 µM) at the desired incubation times. […] Samples were vortex-mixed for 30 s and centrifuged at 10,000 × g for 10 min at 4°C. Compound disappearance over time was monitored using a Dionex ultra-high-performance liquid chromatography system consisting of an analytical pump and an autosampler coupled with Q Exactive Focus orbitrap mass spectrometer (Thermo Fisher Scientific Inc., Waltham MA). […] The mobile phase used was composed of 0.1% formic acid in water and 0.1% formic acid in acetonitrile with gradient elution. The total run time for each analyte was 5 min.
The mass spectrometer was operated with a HESI ion source in positive ionization mode where compounds were identified in the full scan mode (from m/z 75.00–1125.00) and controlled by the Xcalibur software 4.0.27.13 (Thermo Scientific). Data were acquired using Xcalibur software. Drugs were identified in the full-scan mode (from m/z 75.00 to 1125.00) by comparing t = 0 samples with t = 30 or 60 min samples, and structures were proposed based on the accurate mass information. The percentage of compound remaining for pantothenamides 1, 6, and 7 was determined from the analyte/internal standard (IS) area ratios obtained at t = 30 or 60 min relative to the mean ratios obtained at t = 0 min and calculated using equation 1:
% Remaining=(Peak area of Analyte/Preak area of ISat t=30 or 60 min/MeanPeak area of Analyte/Peak area of ISat t=0 min)×100

UPEC strain CFT073 = assay: Antimicrobial susceptibility assay, UPEC grown in MOPS-glycerol; assay type: cell-based, Escherichia coli; details: UPEC CFT073 grown in MOPS-glycerol, 24 h, ± standard error; for MIC: Escherichia coli
Description: Unless otherwise noted, all reagents were obtained from commercial sources. BAP, 1, and N5-Pan analogs were synthesized according to previously reported procedures ([31], [53]). Urine was self-collected from adult males and females (not menstruating) between 24 and 57 years old (recruitment was open to donors 18–65 years old), who had not used anti-infectives or cranberry products for at least 7 days prior to collection. The collection protocol was approved by the Johns Hopkins University Institutional Review Boards under IRB study NA_00085130. Informed, written consent was obtained from all participants prior to collection. Urine was collected from at least 7 participants over 14 days, stored at 4°C upon collection, and then pooled, filter-sterilized, and frozen at −20°C. Urine Batch A included five male and three female donors with an average age of 33 years (range: 24–57). Urine Batch B included four male and five female donors with an average age of 26 years (range: 24–43). Samples from two donors (donations made at least 30 days apart) were included in both Batch A and Batch B. Urine Batch C included four male and three female donors with an average age of 27 years (range: 24–36). Urine Batch D included four male and three female donors with an average age of 27 years (range: 25–35). Solid urine agar plates were prepared by supplementing cooled 1.5% (wt/vol) agar with filter-sterilized urine in a 4:1 ratio. Liquid MOPS-glycerol was prepared by adding 10 × 3-(N-morpholino)propanesulfonic acid (MOPS) Buffer (Teknova) to water to a final 1× concentration, 1.32 mM K2HPO4, and 0.4% (vol/vol) glycerol and then filter-sterilizing. Unless otherwise noted, all media were supplemented with freshly prepared 20 µM FeSO4. OD600 analyses were performed on Mettler-Toledo UV5Bio UV/Visible spectrophotometer (Columbus, Ohio, USA). For antimicrobial studies, uropathogenic E. coli strain CFT073 (ATCC: BAA-2503) was provided by Kevin Schwartz from the lab of Rodney Welch. All manipulation of UPEC was conducted in a certified biosafety level 2 (BSL-2) laboratory while using BSL-2-associated safety procedures. Antimicrobial data were collected on a Biotek Epoch 2 microplate reader or a Biotek Synergy Neo 2 microplate reader. For metabolic stability studies, losartan potassium (PHR1602), used as an internal standard, was bought from Millipore Sigma (Burlington, MA). Methanol (A456-4) and acetonitrile (A955-4) were purchased from Fisher Chemical (Pittsburgh, PA). Water (9831-03) was purchased from JT Baker (Philipsburg, NJ). Dimethyl sulfoxide (DMSO)(154938-500mL) was purchased from Sigma Aldrich (St. Louis, MO). Mouse plasma (WT) was purchased from Innovative Research (Novi, MI). Mouse liver microsomes (M1000) were purchased from XenoTech LLC (Kansas City, KS).
All antimicrobial susceptibility assays were conducted as previously described using an aseptic technique with some modification ([7]). Briefly, 3–5 isolated colonies of CFT073 on LB agar or pooled urine agar were inoculated into 3 mL of liquid MOPS-glycerol medium or pooled urine, respectively, and grown overnight with shaking at 37°C. Saturated cultures were diluted 1:50 in fresh medium and grown to an OD600 of 0.4. These exponential phase cultures were then diluted 1:1,000 into fresh medium to yield the experimental inoculum, which was mixed 1:1 with medium containing 1 or N5-Pan analog at twice the desired final concentration in 96-well plates. The final concentration of bacteria in each well was approximately 10^5 CFU/mL in a final volume of 200 µL. The concentration ranges of compounds evaluated in MOPS-glycerol were: 1 (0–312.5 μM), 2 (0–100 μM), 3 (0–500 μM), 4–5 (0–2,000 μM), 6–7 (0–100 μM), and 8–12 (0-2,000 μM). Analogs 1, 6, and 7 were evaluated over a range of 0–4,000 μM in four batches of pooled human urine. The OD600 was monitored for 24 h (MOPS-glycerol) or 16 h (pooled urine) at 37°C with periodic shaking. […]

remaining at 1 h, 10 µM ([1]; CD1, mouse, plasma, 1 h, 10 µM compound, 37°C)	stability in mouse plasma [1]	MIC (UPEC strain CFT073)	MIC MOPS-glycerol (UPEC strain CFT073)	% remaining in mouse plasma ([1]; 1 h, 10 µM compound, 37°C)	Compound
< 1%	unstable	2.44 µM	2.44 ± 0.00 µM	–	CCCCCNC(=O)CCNC(=O)[C@H](O)C(C)(C)CO [compound 1, N-pentylpantothenamide, reference compound]
–	good stability	6.25 µM	6.25 ± 0.00 µM	no degradation	CCCCCNC(=O)CNC(=O)[C@H](O)C(C)(C)CO [compound 6, N5-α-pantothenamide]
